{"source": "patent US7745465B2", "about": "“Method of enhancing cellular production of molecular chaperone, hydroxylamine derivatives useful for enhancing the chaperone production and the preparation thereof” (CytRx Corporation, priority 1995, dated 2010)", "key": {"HSP-70": {"test_system": "HSP-70", "experiment": "Myocardial HSP-70 protein content in isolated rat hearts (Western blot)", "experimental": "In separate experiments the effects of heat stress, ischemia, N-[2-hydroxy-3-(1-piperidinyl)propoxy]-3-pyridine carboximidoyl chloride maleate and their combination were studied on myocardial HSP-70 protein content. Isolated hearts were subjected to 15 min. heat-stress (42° C.), global normothermic ischemia, and N-[2-hydroxy-3-[…](1-piperidinyl)propoxy]-3-pyridine carboximidoyl chloride maleate perfusion followed by 120 and 180 min. reperfusion, respectively."}, "[1]": {"test_system": "human skin grafted on severe combined immunodeficiency disease (SCID) mice", "experiment": "UVB light induced skin injury in human skin grafted SCID mice", "format": "in vivo, mouse", "details": "5.0 mg/kg i.p. for 7 days", "experimental": "Human skin tissues were grafted onto immunodeficiency (SCID) mice. The experimental protocol involved a treatment of one group of the mice with N-[2-hydroxy-3-(1-piperidinyl)propoxy]-3-piridinecarboxymidoyl chloride maleate (5.0 mg/kg i.p.) and the other with the solvent NaCl solution (300 μl) for 7 days. On day 8, both groups of mice were exposed to UVB light (100 mJ/cm^2) 24 hours subsequent to the exposure, skin biopsies were taken for histological (sections stained with hematoxylin and eosin), and immunohistological examinations (indirect immunoflourescence technique with monoclonal antibody, mAB).\n(i) Human skin transplanted SCID mice treated by N-[2-hydroxy-3-(1-piperidinyl)propoxy]-3-piridinecarboximidoyl chloride maleate (5.0 mg/kg i.p.) or vehicle were exposed to UVB light (100 mJ/cm^2). After 24 h skin biopsies were taken for histological examination and for hsp72 determination using immunohistological and Western blotting techniques."}, "hsp72 gene": {"test_system": "hsp72 gene", "experiment": "Northern blot of hsp72 mRNA in rat heart ventricles", "format": "in vivo", "experimental": "Experiments were carried out in SPRD male rats. Animals were anaesthetized with Nembutal in a dose of 60 mg/kg/i.p. Body temperature of the rats were maintained with an infra lamp placed over the abdomen and the rectal temperature was measured. After a 25-40 minute period the temperature of the rats increased to 42.0-42.2° C. and this temperature was maintained for 15 minutes. After a recovery period (2 hrs), tissue samples were collected from the left and right ventricles.\nExperiments were carried out in SPRD male rats. The animals were anaesthetized with Nembutal in a dose of 60 mg/kg/i.p. After opening the chest and pericardium, the LAD coronary artery was occluded for 5 minutes and then the incidence and duration of ventricular tachycardia and fibrillation in the reperfusion period (10 minutes) were investigated. Tissue samples were collected from the left and right ventricles.\nTotal RNA was extracted using RN Agents kit (Promega) according to the manufacturer's instructions (Protocols and Applications Guide, 2nd edition, 1991, Promega Corporation). […]\nPrehybridizations were carried out at 65° C. in H-buffer (0.25M Na2HPO4, pH 7.2, 7% SDS) for 15 minutes. […] The membrane was washed with 20 mM Na2HPO4, pH 7.2, 5% SDS (65 C; 2×15 min.) and evaluated by autoradiography. […]"}, "Male Sprague-Dawley rats": {"test_system": "Male Sprague-Dawley rats", "experiment": "Protection against cardiac ischaemia: survival after 5 minutes coronary occlusion and reperfusion", "format": "in vivo, rat"}}}
{"smiles": "O=C(O)/C=C\\C(=O)O.OC(CON=C(Cl)c1cccnc1)CN1CCCCC1", "note": "(centres unmarked) [N-[2-hydroxy-3-(1-piperidinyl)-propoxy]3-pyridinecarboximidoyl chloride maleate]", "values": [{"measurement": "myocardial HSP-70 content", "setting": "HSP-70; compound alone", "value": "did not increase myocardial HSP-70 content"}, {"measurement": "myocardial HSP-70 content", "setting": "HSP-70; ischemia in the presence of 20 mg/l", "value": "increased to approximately the same level as found after heat stress"}, {"measurement": "clinical signs of injuries due to UV exposure", "setting": "[1]; UVB 100 mJ/cm^2, listed as N-[2-hydroxy-3-(1-piperidinyl)propoxy]-3-piridinecarboximidoyl chloride maleate", "value": "prevented UVB light induced skin injury"}, {"measurement": "clinical signs of injuries due to UV exposure", "setting": "[1]; UVB 100 mJ/cm^2, listed as N-[2-hydroxy-3-(1-piperidinyl)propoxy]-3-piridinecarboxymidoyl chloride maleate", "value": "clinical signs of injuries due to UV exposure could not be observed"}, {"measurement": "expression of hsp72 gene in heart muscle preparations", "setting": "hsp72 gene; 100 mg/kg p.o., ischemia", "value": "highly increased expression of hsp72 gene"}, {"measurement": "activation of the hsp72 gene", "setting": "hsp72 gene; in the absence of stress, compound alone", "value": "unable to activate the hsp72 gene"}, {"measurement": "Survival (%)", "setting": "Male Sprague-Dawley rats; 20 mg/kgbw p.o.", "value": 100, "unit": "%"}, {"measurement": "Survival (%)", "setting": "Male Sprague-Dawley rats; i.v. 1 mg/kgbw, 5 min. before the occlusion, non-treated control 10", "value": 100, "unit": "%"}]}
